Source: patent US5952310A, “Glycopeptide hexapeptides” (priority 1998, dated 1999)

Assays:
[1] = tested on: Staphylococcus haemolyticus 415; assay: MIC, standard broth micro-dilution assay, SH 415; format: cell-based
[2] = tested on: Staphylococcus epidermidis 270
[3] = tested on: Enterococcus faecium and faecalis (RESISTANT); details: geometric mean of 4-6 isolates
Protocol: (§1) The minimal inhibitory concentrations (MICs) were determined using a standard broth micro-dilution assay.

[4] = tested on: Staphylococcus aureus 446
Protocol: as §1

[5] = tested on: Staphylococcus aureus 447; assay: MIC, standard broth micro-dilution assay, SA447; format: cell-based
[6] = tested on: Streptococcus pyogenes C203; assay: MIC, standard broth micro-dilution assay, SPY C203; format: cell-based
[7] = tested on: Enterococcus faecium and faecalis (SENSITIVE); assay: MIC, standard broth micro-dilution assay, sensitive enterococci; format: cell-based; details: geometric mean of 4-6 isolates
[8] = tested on: Staphylococcus haemolyticus 105; assay: MIC, standard broth micro-dilution assay, SH 105; format: cell-based
[9] = tested on: Staphylococcus aureus 489; assay: MIC, standard broth micro-dilution assay, SA489; format: cell-based
[10] = tested on: Streptococcus pneumoniae P1
Protocol: as §1

| SMILES | Minimal Inhibitory Concentration (MIC) SH 415 [1] | Minimal Inhibitory Concentration (MIC) SE 270 [2] | Minimal Inhibitory Concentration (MIC) Resistant [3] | Minimal Inhibitory Concentration (MIC) SA 446 [4] | Minimal Inhibitory Concentration (MIC) SA 447 [5] | Minimal Inhibitory Concentration (MIC) SPY C203 [6] | Minimal Inhibitory Concentration (MIC) Sensitive [7] | Minimal Inhibitory Concentration (MIC) SH 105 [8] | Minimal Inhibitory Concentration (MIC) SA 489 [9] | Minimal Inhibitory Concentration (MIC) SPN P1 [10] |
| --- | --- | --- | --- | --- | --- | --- | --- | --- | --- | --- |
| CC1OC(OC2c3ccc(c(Cl)c3)Oc3cc4cc(c3OC3OC(CO)C(O)C(O)C3OC3CC(C)(N)C(O)C(C)O3)Oc3ccc(cc3Cl)C(O)C(N)C(=O)NC(CC(N)=O)C(=O)NC4C(=O)NC3C(=O)NC2C(=O)NC(C(=O)O)c2cc(O)cc(O)c2-c2cc3ccc2O)CC(C)(N)C1O (stereo not drawn) [Example 1, DESLEUCYL-A82846B] | > 64 | 64 | > 128 | 64 | 64 | 4 | > 128 | > 64 | 32 | – |
| CC1OC(OC2c3ccc(c(Cl)c3)Oc3cc4cc(c3OC3OC(CO)C(O)C(O)C3OC3CC(C)(NCc5ccc(Cl)cc5)C(O)C(C)O3)Oc3ccc(cc3Cl)C(O)C(N)C(=O)NC(CC(N)=O)C(=O)NC4C(=O)NC3C(=O)NC2C(=O)NC(C(=O)O)c2cc(O)cc(O)c2-c2cc3ccc2O)CC(C)(N)C1O (stereo not drawn) [Example 2, N^DISACC -(p-CHLOROBENZYL)-DESLEUCYL-A82846B] | 4 | 2 | > 81 | 4 | 2 | ≤ 0.06 | 5.2 | 2 | 0.5 | – |
| CC1OC(OC2c3ccc(c(Cl)c3)Oc3cc4cc(c3OC3OC(CO)C(O)C(O)C3OC3CC(C)(NCc5ccc(Oc6ccccc6)cc5)C(O)C(C)O3)Oc3ccc(cc3Cl)C(O)C(N)C(=O)NC(CC(N)=O)C(=O)NC4C(=O)NC3C(=O)NC2C(=O)NC(C(=O)O)c2cc(O)cc(O)c2-c2cc3ccc2O)CC(C)(N)C1O (stereo not drawn) [Example 3, N^DISACC -(p-PHENOXYBENZYL)-DESLEUCYL-A82846B] | 1 | 0.5 | 45 | 2 | 1 | ≤ 0.06 | 14 | 2 | 1 | ≤ .06 |
| CC1OC(OC2c3ccc(c(Cl)c3)Oc3cc4cc(c3OC3OC(CO)C(O)C(O)C3OC3CC(C)(NCc5ccc(-c6ccccc6)cc5)C(O)C(C)O3)Oc3ccc(cc3Cl)C(O)C(N)C(=O)NC(CC(N)=O)C(=O)NC4C(=O)NC3C(=O)NC2C(=O)NC(C(=O)O)c2cc(O)cc(O)c2-c2cc3ccc2O)CC(C)(N)C1O (stereo not drawn) [Example 4, N^DISACC -(p-PHENYLBENZYL)-DESLEUCYL-A82846B] | 1 | 1 | 16 | 2 | 1 | ≤ 0.06 | 3.4 | 1 | 0.25 | 0.125 |
| CCCCc1ccc(CNC2(C)CC(OC3C(Oc4c5cc6cc4Oc4ccc(cc4Cl)C(OC4CC(C)(N)C(O)C(C)O4)C4NC(=O)C(NC(=O)C6NC(=O)C(CC(N)=O)NC(=O)C(N)C(O)c6ccc(c(Cl)c6)O5)c5ccc(O)c(c5)-c5c(O)cc(O)cc5C(C(=O)O)NC4=O)OC(CO)C(O)C3O)OC(C)C2O)cc1 (stereo not drawn) [Example 5, N^DISACC -(p-n-BUTYLBENZYL)-DESLEUCYL-A82846B] | 2 | 1 | 108 | 1 | 2 | 0.125 | 9.2 | 1 | 1 | 0.25 |
| CC1OC(OC2c3ccc(c(Cl)c3)Oc3cc4cc(c3OC3OC(CO)C(O)C(O)C3OC3CC(C)(NCc5ccc(-c6ccc(Cl)cc6)cc5)C(O)C(C)O3)Oc3ccc(cc3Cl)C(O)C(N)C(=O)NC(CC(N)=O)C(=O)NC4C(=O)NC3C(=O)NC2C(=O)NC(C(=O)O)c2cc(O)cc(O)c2-c2cc3ccc2O)CC(C)(N)C1O (stereo not drawn) [Example 6, N^DISACC -(p-(p-CHLOROPHENYL)-BENZYL)DESLEUCYL-A82846B] | 1 | 0.5 | 6.7 | 2 | 1 | ≤ .06 | 2.6 | 0.5 | 2 | 0.25 |
| CC1OC(OC2c3ccc(c(Cl)c3)Oc3cc4cc(c3OC3OC(CO)C(O)C(O)C3O)Oc3ccc(cc3Cl)C(O)C(N)C(=O)NC(CC(N)=O)C(=O)NC4C(=O)NC3C(=O)NC2C(=O)NC(C(=O)O)c2cc(O)cc(O)c2-c2cc3ccc2O)CC(C)(N)C1O (stereo not drawn) [Example 7, N^DISACC -DES-EPIVANCOAMINYL-DESLEUCYL-A82846B] | > 64 | > 64 | > 128 | 32 | 64 | 4 | 56 | 64 | 8 | 2 |
| CC1OC(OC2c3ccc(c(Cl)c3)Oc3cc4cc(c3OC3OC(CO)C(O)C(O)C3OC3CC(C)(NCCCCCCCCc5ccccc5)C(O)C(C)O3)Oc3ccc(cc3Cl)C(O)C(N)C(=O)NC(CC(N)=O)C(=O)NC4C(=O)NC3C(=O)NC2C(=O)NC(C(=O)O)c2cc(O)cc(O)c2-c2cc3ccc2O)CC(C)(N)C1O (stereo not drawn) [Example 8, N^DISACC -(8-PHENYL-n-OCTYL)DESLEUCYL-A82846B] | 2 | 1 | 5.7 | 4 | 2 | 0.125 | 0.76 | 0.25 | 1 | 0.125 |
